Results as given in PMC12285270, “An antibiotic-free antimicrobial combination of bacteriocins and a peptidoglycan hydrolase: in vitro and in vivo assessment of its efficacy” (Applied and Environmental Microbiology, 2025).
Ends that are not written are not given here.

Key:
[1] = tested on: HT29 and Caco-2 cell lines; conditions: in vitro; cited from earlier work
From the text: (§1) Encouraged by the efficacy of the MP1/Nis/Aur combination in inhibiting S. aureus in the wound, we sought to examine the potential of the antimicrobial combination in treating mastitis, an infection often caused by S. aureus.

S. aureus Xen36 = conditions: cited from earlier work
From the text: (§2) The antimicrobial combinations of MP1, Nis, and AuresinePlus were additionally shown to be effective at eradicating S. aureus biofilms (Fig. 3B and C). This led us to assess the antimicrobial efficacy of the combination in vivo using a murine skin infection model. For infected mice treated with the combination, a reduction in the bioluminescence signal was observed throughout the experiment, except for two mice where a relapse of the infection occurred (see Discussion below, Fig. 4C).

S. aureus = conditions: in vitro; cited from earlier work
From the text: As individual components, these antimicrobials probably have limited efficacy against S. aureus in wounds. AuresinePlus is an engineered PGH consisting of the catalytic domain of the S. aureus autolysin LytM and the SH3b cell wall-binding domain lysostaph ...

[2] = tested on: S. aureus Xen31 isolates Mut1 and Mut2; test: Spot-on-lawn assay on isolates recovered from wounds; format: cell-based; conditions: for zone of inhibition compared to wild-type strain Xen31: both isolates Mut1 and Mut2, 2 µl of 1 mg/ml nisin A, 0.1 mg/ml MP1 and/or 0.1 mg/ml AuresinePlus spotted
Protocol: Figure S9. Susceptibility of Xen31 mutants recovered from wounded mice. Spot-on-lawn assay using MP1 (M), Nis (N), Aur (A) or the tricomponent combination (MNA) comparing Xen31 WT with two resistant isolates recovered at day 7 PI from the back of wounded mice. Two µl of 1 mg/ml nisin A, 0.1 mg/ml MP1 and/or 0.1 mg/ml AuresinePlus were spotted.

[3] = tested on: HepG2 and THP-1 cell lines; conditions: cited from earlier work
From the text: as §1

S. aureus Xen31 = conditions: formulation: 0.1 mg/mL MP1, 5 mg/mL garvicin KS, 5 mg/mL penicillin G in 5% hydropropylcellulose; cited from earlier work
From the text: as §2

[4] = tested on: normal human epidermal keratinocytes; conditions: cited from earlier work
From the text: as §1

Question: With “nisin A (ITSISLCTPGCKTGALMGCNMKTATCHCSIHVSK; also: lantibiotic (lanthionine rings, dehydro residues) not placed; UniProt P13068 24-57, looked up) [lantibiotic bacteriocin; commercial fermentate from Sigma-Aldrich (N5764; 2.5% wt/wt nisin)]” as the substance, how does the “IC50 (cytotoxicity)” value [1] read?
Answer: 300 to 400 µg/mL

Question: And the “effect on wound healing” value (S. aureus Xen36)?
Answer: no negative effects on wound healing

Question: What about the “reduction in bacterial counts” value (S. aureus Xen36; skin wounds, nisin concentration comparable to this study) of the same substance?
Answer: 2 log

Question: What about the “frequency of spontaneous mutations conferring high levels of nisin tolerance” value (S. aureus) of the same substance?
Answer: 2 × 10^−7

Question: And the “zone of inhibition compared to wild-type strain Xen31” value [2]?
Answer: particularly reduced

Question: For micrococcin P1 [MP1], which “concentration above which growth is impaired” value [3] is on record?
Answer: above 0.03 mg/mL

Question: What about the “negative effects on the mice” value (S. aureus Xen31) of the same substance?
Answer: no obvious negative effects on the mice

Question: What about the “sensitivity of isolate Mut2” value ([2]; Mut2, 2 µl of 0.1 mg/ml MP1 spotted) of the same substance?
Answer: insensitive

Question: What about the “zone of inhibition compared to wild-type strain Xen31” value [2] of the same substance?
Answer: particularly reduced

Question: Which “IC50 (midpoint cytotoxicity value)” value [4] does the source give for “Lysostaphin: large (>10 kDa) heat-labile bacteriolysin from S. simulans” here?
Answer: 16000 µg/mL
